Measured values reported in PMC10708259 (Molecules, 2023).

Assays:
[1] = target: T1, human κ-opioid receptor (OPRK1) (Homo sapiens, UniProt P41145); assay: Forskolin-induced cAMP accumulation assay, KOR antagonist mode; settings: for KOR Antagonist %Imax ± SEM: versus EC90 of U50488H, Imax normalized to nor-BNI
[2] = target: human δ-opioid receptor (OPRD1) (Homo sapiens, UniProt P41143); assay: Forskolin-induced cAMP accumulation assay, DOR agonist mode; settings: for Emax: CHO-K1, read-out: DOR Agonist %Emax ± SEM; for DOR efficacy in words: cAMP assay
[3] = target: T2, human μ-opioid receptor (OPRM1) (Homo sapiens, UniProt P35372); assay: cell-based; assay type: cell-based; settings: for EC50: MOR Agonist EC50 ± SEM; for Emax: read-out: MOR Agonist %Emax ± SEM
T2 construct: host or cells: cAMP Hunter CHO-K1

[4] = target: T1, human κ-opioid receptor (OPRK1); assay: Forskolin-induced cAMP accumulation assay, KOR agonist mode; settings: for Emax: CHO-K1, read-out: KOR Agonist %Emax ± SEM

T2 sequence (P35372 whole entry): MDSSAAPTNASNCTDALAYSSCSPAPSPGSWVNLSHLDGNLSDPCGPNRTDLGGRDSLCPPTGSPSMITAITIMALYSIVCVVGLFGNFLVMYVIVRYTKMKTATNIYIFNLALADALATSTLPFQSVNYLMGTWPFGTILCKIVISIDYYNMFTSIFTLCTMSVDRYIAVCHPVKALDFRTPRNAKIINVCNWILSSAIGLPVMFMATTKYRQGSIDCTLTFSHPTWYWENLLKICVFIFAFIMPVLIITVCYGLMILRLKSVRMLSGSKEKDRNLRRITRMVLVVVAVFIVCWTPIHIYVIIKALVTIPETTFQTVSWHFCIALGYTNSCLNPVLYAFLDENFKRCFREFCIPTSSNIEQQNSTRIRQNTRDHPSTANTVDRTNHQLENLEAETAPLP
T1 sequence (P41145 whole entry): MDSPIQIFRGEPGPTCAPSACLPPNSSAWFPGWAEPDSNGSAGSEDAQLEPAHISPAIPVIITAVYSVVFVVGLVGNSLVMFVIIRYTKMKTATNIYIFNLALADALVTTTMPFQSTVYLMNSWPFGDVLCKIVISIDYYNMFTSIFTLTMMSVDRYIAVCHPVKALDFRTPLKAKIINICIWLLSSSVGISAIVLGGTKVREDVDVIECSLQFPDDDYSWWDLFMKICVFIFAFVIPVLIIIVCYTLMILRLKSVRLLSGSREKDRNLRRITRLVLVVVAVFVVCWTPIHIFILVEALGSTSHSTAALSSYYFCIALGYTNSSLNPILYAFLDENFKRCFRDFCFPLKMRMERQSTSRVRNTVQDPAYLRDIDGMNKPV
human δ-opioid receptor (OPRD1), sequence (P41143 whole entry): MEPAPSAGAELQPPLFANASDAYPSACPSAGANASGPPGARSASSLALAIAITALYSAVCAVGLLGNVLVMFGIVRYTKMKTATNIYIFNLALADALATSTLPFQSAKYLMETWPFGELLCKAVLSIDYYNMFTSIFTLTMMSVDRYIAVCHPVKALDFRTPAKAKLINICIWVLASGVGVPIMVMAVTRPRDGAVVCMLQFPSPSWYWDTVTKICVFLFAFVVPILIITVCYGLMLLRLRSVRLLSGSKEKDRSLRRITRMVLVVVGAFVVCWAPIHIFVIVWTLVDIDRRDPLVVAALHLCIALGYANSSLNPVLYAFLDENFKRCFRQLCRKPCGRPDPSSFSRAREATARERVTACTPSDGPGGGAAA

Structure (SMILES) | IC50 [1] | KOR Antagonist %Imax ± SEM [1] | EC50 [2] | Emax [2] | EC50 [3] | Emax [3] | EC50 [4] | Emax [4] | MOR potency relative to morphine (times more potent than morphine) [3] | MOR agonist potency / efficacy in words [3] | DOR efficacy in words [2]
CC1C2Cc3ccc(O)cc3C1(C)CCN2CCc1cccc(Br)c1 [Compound 13, (1R,5R,9R)-6,11-Dimethyl-3-(3-bromophenethyl)-1,2,3,4,5,6-hexahydro-2,6-methanobenzo[d]azocin-8-ol] | 90 ± 37 nM | 99 ± 2% | 110 ± 24 nM | 51% | 18 nM | 78% | > 10000 nM |  |  |  | 
C[C@H]1[C@H]2Cc3ccc(O)cc3[C@]1(C)CCN2CCc1ccc(F)cc1 [Compound 6, (2R,6R,11R)-6,11-Dimethyl-3-(4-fluorophenethyl)-1,2,3,4,5,6-hexahydro-2,6-methanobenzo[d]azocin-8-ol] | 368 ± 92 nM | 71 ± 2% | 12 ± 3 nM | 73% | 1.8 nM | 100% | 7 ± 3 nM | 34% |  |  | 
CC1C2Cc3ccc(O)cc3C1(C)CCN2CCc1ccccc1[N+](=O)[O-] [Compound 5, (1R,5R,9R)-6,11-Dimethyl-3-(2-nitrophenethyl)-1,2,3,4,5,6-hexahydro-2,6-methanobenzo[d]azocin-8-ol] | 717 ± 132 nM | 89 ± 5% | 37 ± 6 nM | 73% | 2.7 nM | 101% | 16 ± 4 nM | 23% |  |  | 
CC1c2ccc(O)cc2[C@@]2(C)CCN(CCc3ccccc3)[C@@H]1[C@H]2C (single isomer, unassigned; (+)) [(+)-39] | > 10000 nM |  | 1340 ± 389 nM | 94% | 21.7 nM | 103% | 953 ± 120 nM | 37% |  |  | 
CC1C2Cc3ccc(O)cc3C1(C)CCN2CCc1cccc([N+](=O)[O-])c1 [Compound 4, (1R,5R,9R)-6,11-Dimethyl-3-(3-nitrophenethyl)-1,2,3,4,5,6-hexahydro-2,6-methanobenzo[d]azocin-8-ol] |  |  |  |  | 26 nM | 71% |  |  |  |  | 
CC1C2Cc3ccc(O)cc3C1(C)CCN2CCc1ccccc1F [Compound 8, (1R,5R,9R)-6,11-Dimethyl-3-(2-fluorophenethyl)-1,2,3,4,5,6-hexahydro-2,6-methanobenzo[d]azocin-8-ol] |  |  | 6 ± 2 nM | 87% | 0.2 nM | 101% | 6 ± 1 nM | 45% | about 30 times |  | 
CC1C2Cc3ccc(O)cc3C1(C)CCN2CCc1cccc(C(F)(F)F)c1 [Compound 10, (1R,5R,9R)-6,11-Dimethyl-3-(3-trifluoromethylphenethyl)-1,2,3,4,5,6-hexahydro-2,6-methanobenzo[d]azocin-8-ol] |  |  |  |  | 167 nM | 63% |  |  |  |  | 
C[C@H]1[C@H]2Cc3ccc(O)cc3[C@]1(C)CCN2CCCc1ccc([N+](=O)[O-])cc1 [Compound 31, (1R,5R,9R)-6,11-Dimethyl-3-(3-(4-nitrophenyl)propyl)-1,2,3,4,5,6-hexahydro-2,6-methanobenzo[d]azocin-8-ol] |  |  |  |  | ≥ 10000 nM |  |  |  |  | little or no potency | 
CC1C2Cc3ccc(O)cc3C1(C)CCN2CC=Cc1ccccc1 [Compound 25, (1R,5R,9R)-6,11-Dimethyl-3-(cinnamyl)-1,2,3,4,5,6-hexahydro-2,6-methanobenzo[d]azocin-8-ol] |  |  |  |  | 244 nM | 101% |  |  |  | little or no potency | 
CC1C2Cc3ccc(O)cc3C1(C)CCN2CCc1ccc(Cl)cc1 [Compound 15, (1R,5R,9R)-6,11-Dimethyl-3-(4-chlorophenethyl)-1,2,3,4,5,6-hexahydro-2,6-methanobenzo[d]azocin-8-ol] |  |  | 1.2 ± 0.5 nM | 89% | 1.3 nM | 103% | 5 ± 1 nM | 97% |  |  | partial DOR agonists
CC1C2Cc3ccc(O)cc3C1(C)CCN2CCc1ccc([N+](=O)[O-])cc1 [Compound 3, (1R,5R,9R)-6,11-Dimethyl-3-(4-nitrophenethyl)-1,2,3,4,5,6-hexahydro-2,6-methanobenzo[d]azocin-8-ol] |  |  | 2.7 ± 1 nM | 88% | 0.3 nM | 101% | 13 ± 0.5 nM | 46% |  |  | partial DOR agonists
CC1C2Cc3ccc(O)cc3C1(C)CCN2CCc1ccc(Cl)cc1Cl [Compound 21, (1R,5R,9R)-6,11-Dimethyl-3-(2,4-dichlorophenethyl)-1,2,3,4,5,6-hexahydro-2,6-methanobenzo[d]azocin-8-ol] |  |  | 37 ± 9 nM | 86% | 5 nM | 103% | 42 ± 10 nM | 93% |  |  | 
CC1C2Cc3ccc(O)cc3C1(C)CCN2CCc1ccc(O)cc1 [Compound 20, (1R,5R,9R)-6,11-Dimethyl-3-(4-hydroxyphenethyl)-1,2,3,4,5,6-hexahydro-2,6-methanobenzo[d]azocin-8-ol] |  |  | 5 ± 1 nM | 84% | 0.13 nM | 102% | 8 ± 3 nM | 97% | ~40 times |  | 
Cc1ccc(CCN2CCC3(C)c4cc(O)ccc4CC2C3C)cc1 [Compound 19, (1R,5R,9R)-6,11-Dimethyl-3-(4-methylphenethyl)-1,2,3,4,5,6-hexahydro-2,6-methanobenzo[d]azocin-8-ol] |  |  | 5 ± 2 nM | 87% | 1.4 nM | 103% | 13 ± 3 nM | 93% |  |  | 
CC1C2Cc3ccc(O)cc3C1(C)CCN2CCc1ccccc1C(F)(F)F [Compound 11, (1R,5R,9R)-6,11-Dimethyl-3-(2-trifluoromethylphenethyl)-1,2,3,4,5,6-hexahydro-2,6-methanobenzo[d]azocin-8-ol] |  |  | 24 ± 5 nM | 77% | 6 nM | 102% | 36 ± 3 nM | 72% |  |  | 
CC1C2Cc3ccc(O)cc3C1(C)CCN2CCc1ccccc1Cl [Compound 17, (1R,5R,9R)-6,11-Dimethyl-3-(2-chlorophenethyl)-1,2,3,4,5,6-hexahydro-2,6-methanobenzo[d]azocin-8-ol] |  |  | 15 ± 4 nM | 87% | 1.4 nM | 101% | 8 ± 1 nM | 57% |  |  | 
C=C1c2ccc(O)cc2[C@]2(C)CCN(CCc3ccccc3)[C@H]1[C@@H]2C [(−)-38, (2S,6R,11R)-6,11-Dimethyl-1-methylene-3-phenethyl-1,2,3,4,5,6-hexahydro-2,6-methanobenzo[d]azocin-8-ol] |  |  | 4.9 ± 3 nM | 89% | 0.23 nM | 101% | 9.5 ± 2 nM | 57 ± 45.6% | about 25 times |  | 
C[C@H]1[C@H]2Cc3ccc(O)cc3[C@]1(C)CCN2CCCc1ccccc1 [Compound 24, (1R,5R,9R)-6,11-Dimethyl-3-(phenylpropyl)-1,2,3,4,5,6-hexahydro-2,6-methanobenzo[d]azocin-8-ol] |  |  |  |  | 69 nM | 101% |  |  |  | little or no potency | 
COc1ccc(CCN2CCC3(C)c4cc(O)ccc4CC2C3C)cc1 [Compound 18, (1R,5R,9R)-6,11-Dimethyl-3-(4-methoxyphenethyl)-1,2,3,4,5,6-hexahydro-2,6-methanobenzo[d]azocin-8-ol] |  |  | 4 ± 1 nM | 87% | 1.2 nM | 103% | 9 ± 2 nM | 89% |  |  | 
C[C@@H]1[C@@H]2C(O)c3ccc(O)cc3[C@@]1(C)CCN2CCc1ccccc1 (single isomer, unassigned; (+)) [(+)-36] |  |  | 1910 ± 232 nM | 97% | 25.2 nM | 103% | > 10000 nM |  |  |  | 
CC1C2Cc3ccc(O)cc3C1(C)CCN2CCc1ccccc1Br [Compound 14, (1R,5R,9R)-6,11-Dimethyl-3-(2-bromophenethyl)-1,2,3,4,5,6-hexahydro-2,6-methanobenzo[d]azocin-8-ol] |  |  | 13 ± 2 nM | 89% | 2 nM | 101% | 16 ± 2 nM | 80% |  |  | 
CC1C2Cc3ccc(O)cc3C1(C)CCN2CCc1ccc(C(F)(F)F)cc1 [Compound 9, (1R,5R,9R)-6,11-Dimethyl-3-(4-trifluoromethylphenethyl)-1,2,3,4,5,6-hexahydro-2,6-methanobenzo[d]azocin-8-ol] |  |  | 3 ± 1 nM | 72% | 2 nM | 102% | 23 ± 5 nM | 100% |  |  | partial DOR agonists
C=C1c2ccc(O)cc2[C@@]2(C)CCN(CCc3ccccc3)[C@@H]1[C@H]2C [(+)-38, (2R,6S,11S)-6,11-Dimethyl-1-methylene-3-phenethyl-1,2,3,4,5,6-hexahydro-2,6-methanobenzo[d]azocin-8-ol] |  |  | 978 ± 374 nM | 92% | 70 nM | 102% | 1180 ± 46 nM | 53% |  |  | 
CC1C2Cc3ccc(O)cc3C1(C)CCN2CCc1ccc(Br)cc1 [Compound 12, (1R,5R,9R)-6,11-Dimethyl-3-(4-bromophenethyl)-1,2,3,4,5,6-hexahydro-2,6-methanobenzo[d]azocin-8-ol] |  |  | 1.1 ± 0.3 nM | 89% | 0.7 nM | 102% | 5 ± 2 nM | 100% |  |  | partial DOR agonists
